System: 521955-158-R2-J5-PDC complex spheroid growth
Assay: Anticancer human tumor 521955-158-R2-J5-PDC patient-derived pancreatic carcinoma cell line growth inhibition [AhR]
Conditions: for IC50: curve of first compound; for viability, T/C: stronger effect = lower value
Text: Multicellular complex tumor spheroid response to aryl hydrocarbon receptor antagonists in combination with a variety of drugs and investigational agents in selected tumor cell lines
The current study was undertaken to assess response to aryl hydrocarbon receptor antagonists in combination with standard-of-care drugs and investigational agents in solid tumor complex spheroid models. Complex spheroids include a stromal component modeled by human endothelial cells (HUVEC) and fibroblasts modeled by human mesenchymal stem cells (MSCs). The concentration ranges selected for each drug and investigational agent were based upon clinically achievable concentrations if the clinical Cmax of the agent was known.
Compounds. The drugs and investigational agents: BAY 2416964 (NSC825713), GNF351 (NSC835774), CH-223191 (NSC835775), CPI-455 (NSC825282), aza-TdCyd (NSC777586), decitabine (NSC127716), belinostat (NSC758774), entinostat (NSC756642), pevonedistat (NSC761192), tazemetostat (NSC777109), talazoparib (NSC765396), olaparib (NSC753686), selinexor (NSC780203), nedisertib (M3814, NSC802822), bortezomib (NSC756655), venetoclax (NSC766270), doxorubicin (NSC123127), elimusertib (BAY189344, NSC800525), ceralasertib (AZD6738, NSC777638), TAK-243 (NSC785004), alisertib (NSC759677), etoposide (NSC141540), topotecan (NSC609699), eribulin (NSC707389), gemcitabine (NSC613327), carboplatin (NSC241240), cisplatin (NSC119875), and SN-38 (NSC673596) were obtained from the National Cancer Institute (NCI) Developmental Therapeutics Program Chemical Repository (32). The FDA-approved anticancer drug set is available from the Developmental Therapeutics Program at https://dtp.cancer.gov/organization/dscb/obtaining/available plates.htm. […] The stock solutions were prepared in dimethyl sulfoxide (DMSO, Sigma-Aldrich, St. Louis, MO, cat. D2650), except for the platinum compounds which were prepared in saline (Quality Biological, Gaithersburg, MD, cat. 114-055-101), at 800-fold the tested concentration and stored at -70 degrees C prior to their use. All drugs and investigational agents were tested over a range starting from a high concentration at or near the clinical Cmax and decreasing in half-log increments. If the clinical Cmax for an agent had not been determined, the highest concentration tested was 10 microM (Table 1).
Cell Culture. All cells were maintained in an incubator at 37 degrees C and 5% CO2 with 95% humidity. The PDC lines were cultured according to standard operating procedures established by the NCI PDMR (https://pdmr.cancer.gov). Briefly, all PDCs were thawed and cultured in Matrigel-coated flasks prepared with a working solution of 1X Ham's F-12 nutrient mix, without supplementation (Invitrogen, Waltham, MA, cat. 11765054), 100 U/mL penicillin-streptomycin (Invitrogen, cat. 15140122), and 2.5% Matrigel (Corning Inc., Corning, NY, cat. 354248) for the first three passages. All PDCs were cultured in complete DMEM/F-12 media containing advanced DMEM/F-12 (Invitrogen, cat. 12634028), 4.9% defined fetal bovine serum, heat inactivated (HyClone Laboratories Inc., Logan, UT, cat. SH30070.03HI), 389 ng/mL hydrocortisone (Sigma-Aldrich, cat. H4001), 9.7 ng/mL human EGF recombinant protein (Invitrogen, cat. PHG0313), 23.4 microg/mL adenine (Sigma-Aldrich, cat. A2786), 97.3 U/mL penicillin-streptomycin (Invitrogen, cat. 15140122), 1.9 mM L-glutamine (Invitrogen, cat. 25030081), and 9.7 microM Y-27632 dihydrochloride (Tocris Bioscience, Bristol, United Kingdom, cat. 1254). The PDCs were cultured in complete DMEM/F12 media without 10 microM Y-27632 dihydrochloride for at least two passages prior to the screen. The established cell lines NCI-H1341 and […] were cultured in DMEM/F-12, HEPES (Invitrogen, cat. 11330032), 5% defined fetal bovine serum (HyClone Laboratories Inc., cat. SH30070.03), ITS premix universal culture supplement [insulin (5 microg/mL), transferrin (5 microg/mL), and selenious acid (5 ng/mL)] […]

[1] = second compound 0.1 µM, first compound 0.0316 µM
[2] = second compound 0.1 µM, first compound 0.1 µM
[3] = second compound 0.1 µM, first compound 0.316 µM
[4] = second compound 0.1 µM, first compound 1 µM
[5] = second compound 0.1 µM, first compound 3.16 µM
[6] = second compound 0.1 µM, first compound 10 µM
[7] = second compound 0.316 µM, first compound 0.0316 µM
[8] = second compound 0.316 µM, first compound 0.1 µM
[9] = second compound 0.316 µM, first compound 0.316 µM
[10] = second compound 0.316 µM, first compound 1 µM
[11] = second compound 0.316 µM, first compound 3.16 µM
[12] = second compound 0.316 µM, first compound 10 µM
[13] = second compound 1 µM, first compound 0.0316 µM
[14] = second compound 1 µM, first compound 0.1 µM
[15] = second compound 1 µM, first compound 0.316 µM
[16] = second compound 1 µM, first compound 1 µM
[17] = second compound 1 µM, first compound 3.16 µM
[18] = second compound 1 µM, first compound 10 µM
[19] = second compound 3.16 µM, first compound 0.0316 µM
[20] = second compound 3.16 µM, first compound 0.1 µM
[21] = second compound 3.16 µM, first compound 0.316 µM
[22] = second compound 3.16 µM, first compound 1 µM
[23] = second compound 3.16 µM, first compound 3.16 µM
[24] = second compound 3.16 µM, first compound 10 µM
[25] = second compound 10 µM, first compound 0.0316 µM
[26] = second compound 10 µM, first compound 0.1 µM
[27] = second compound 10 µM, first compound 0.316 µM
[28] = second compound 10 µM, first compound 1 µM
[29] = second compound 10 µM, first compound 3.16 µM
[30] = second compound 10 µM, first compound 10 µM
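Wherever viability, T/C is given: spheroids mix tumor cells with HUVEC endothelium and human MSC stroma; luminescence taken as viability surrogate after a week of drug exposure.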

Row | Structure (SMILES) | IC50 (second compound 0.1 µM) | IC50 (second compound 0.316 µM) | IC50 (second compound 1 µM) | IC50 (second compound 3.16 µM) | IC50 (second compound 10 µM) | viability, T/C [1] | viability, T/C [2] | viability, T/C [3] | viability, T/C [4] | viability, T/C [5] | viability, T/C [6] | viability, T/C [7] | viability, T/C [8] | viability, T/C [9] | viability, T/C [10] | viability, T/C [11] | viability, T/C [12] | viability, T/C [13] | viability, T/C [14] | viability, T/C [15] | also measured
1 | O=C(c1cc(Cc2n[nH]c(=O)c3ccccc23)ccc1F)N1CCN(C(=O)C2CC2)CC1 + CC(CO)NC(=O)c1cc(-c2ccc(Cl)cc2)nn(-c2cnn(C)c2)c1=O | > 10 µM | > 10 µM | > 10 µM | > 10 µM | > 10 µM | 116% | 107% | 116% | 85.6% | 76.7% | 75.3% | 102% | 119% | 93.7% | 101% | 73.2% | 71.3% | 101% | 104% | 110% | viability, T/C [16]: 88.7%; viability, T/C [17]: 83.7%; viability, T/C [18]: 72.6%; viability, T/C [19]: 91.9%; viability, T/C [20]: 128%; viability, T/C [21]: 110%; viability, T/C [22]: 97.7%; viability, T/C [23]: 85.4%; viability, T/C [24]: 70.5%; viability, T/C [25]: 68.5%; viability, T/C [26]: 82.6%; viability, T/C [27]: 87.4%; viability, T/C [28]: 79.9%; viability, T/C [29]: 70.6%; viability, T/C [30]: 50.5%
2 | Nc1ccccc1NC(=O)c1ccc(CNC(=O)OCc2cccnc2)cc1 + Cc1cncc(-c2nc(NCCc3c[nH]c4ccccc34)c3ncn(C(C)C)c3n2)c1 | 5.51 µM | 6.11 µM | 5.74 µM | 5.35 µM | 1.02 µM | 108% | 106% | 125% | 94.7% | 68.4% | 31.5% | 117% | 134% | 126% | 103% | 77.7% | 30.4% | 133% | 139% | 155% | viability, T/C [16]: 108%; viability, T/C [17]: 73.4%; viability, T/C [18]: 30.5%; viability, T/C [19]: 138%; viability, T/C [20]: 143%; viability, T/C [21]: 135%; viability, T/C [22]: 110%; viability, T/C [23]: 69.9%; viability, T/C [24]: 27.2%; viability, T/C [25]: 135%; viability, T/C [26]: 125%; viability, T/C [27]: 101%; viability, T/C [28]: 48.8%; viability, T/C [29]: 17.7%; viability, T/C [30]: 2.9%

Source: PubChem BioAssay AID1918998 (Molecular Pharmacology Branch, DTP, NCI, 2023)
